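Assay format: 96-well plates, 48-hour exposure. At the TGI there is no net growth.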 *1 amine or outer side, *2 acyl side, *3 side chain or, on linkers, in order; H or OH if unused. Where a SMILES comes first, the peptide text is derived from it. Bridges are numbered along the chain shown (N, C = ends). [ ]: non-standard residue; d: D form. X35 = CC[C@H](C)[C@@H](N[*:1])[C@@H](O)CC(=O)O[C@H](C(=O)[C@H](C)C(=O)[*:2])C(C)C; NMeY = CN[C@@H](Cc1ccc(O)cc1)C(=O)O
Tests used:
Test in all cases: NCI tumour cell line growth inhibition, 48 h
RXF 393 renal = tested on: RXF 393 renal
HCT-116 colon = tested on: HCT-116 colon
UACC-62 melanoma = tested on: UACC-62 melanoma
NCI/ADR-RES ovarian = tested on: NCI/ADR-RES ovarian
MCF7 breast = tested on: MCF7 breast
786-0 renal = tested on: 786-0 renal
IGROV1 ovarian = tested on: IGROV1 ovarian
BT-549 breast = tested on: BT-549 breast
HL-60(TB) leukemia = tested on: HL-60(TB) leukemia
U251 CNS = tested on: U251 CNS
ACHN renal = tested on: ACHN renal
SNB-75 CNS = tested on: SNB-75 CNS
RPMI-8226 leukemia = tested on: RPMI-8226 leukemia
SF-295 CNS = tested on: SF-295 CNS
NCI-H522 lung = tested on: NCI-H522 lung

SMILES	TGI (RXF 393 renal) [µM]	TGI (HCT-116 colon) [µM]	TGI (UACC-62 melanoma) [µM]	TGI (NCI/ADR-RES ovarian) [µM]	TGI (MCF7 breast) [µM]	TGI (786-0 renal) [µM]	TGI (IGROV1 ovarian) [µM]	TGI (BT-549 breast) [µM]	TGI (HL-60(TB) leukemia) [µM]	TGI (U251 CNS) [µM]	TGI (ACHN renal) [µM]	TGI (SNB-75 CNS) [µM]	TGI (RPMI-8226 leukemia) [µM]	TGI (SF-295 CNS) [µM]	TGI (NCI-H522 lung) [µM]
Cc1c(C(=O)c2ccccc2)[n+](=O)c2cc(Cl)c(Cl)cc2n1[O-]	19.2	26.3	25.1	38	26.6	29.3	5.16	31.5	4.82	29.9	28.5	15.8	19.8	28.7	–
O=S1SC(=S)C2C=CC=NC21 (stereo unspecified)	32.5	26.6	40.2	67.5	38.4	27.6	49.6	33.9	> 100	35.1	32.4	34.9	> 100	62.3	53
C[C@@H]1S[C@H](c2c(F)cccc2Cl)n2c1nc1ccccc12	28.8	16.5	29.7	31.4	81.8	28.4	59.5	28.2	–	22.7	> 100	60.8	40.2	42	–
C[N+](C)(C)CC(=O)N/N=C(\Cc1nc2ccc([N+](=O)[O-])cc2[nH]c1=O)C(=O)Nc1nc2ccc([N+](=O)[O-])cc2s1	> 100	> 100	> 100	> 100	> 100	> 100	> 100	94.3	> 100	> 100	> 100	> 100	> 100	> 100	79.8
CCOC(=O)CN1C(=O)NC(C)(c2ccccc2)C1=O (stereo unspecified)	> 100	> 100	> 100	> 100	> 100	> 100	> 100	> 100	–	> 100	> 100	> 100	> 100	> 100	> 100
COC(=O)c1cc(CC2Cc3cc4c(cc3C2=O)CCC4)cc2c1CCC2 (stereo unspecified)	–	> 100	> 100	> 100	> 100	> 100	> 100	> 100	> 100	> 100	> 100	> 100	> 100	> 100	> 100
COc1ccc(-c2sc(Br)c3c2C(=O)C2OC(=O)NC32)cc1OC (stereo unspecified)	> 100	> 100	> 100	> 100	> 100	> 100	> 100	> 100	> 100	> 100	> 100	> 100	> 100	> 100	> 100
Cc1cc(N2CCOCC2)nc2ccc(Cc3ccc4nc(N5CCOCC5)cc(C)c4c3)cc12	> 100	54.7	> 100	> 100	> 100	> 100	> 100	> 100	–	88.5	> 100	> 100	> 100	> 100	> 100
C/C(=N\NC(=O)c1ccncc1)c1sc(-n2nc(-c3ccccc3)cc2-c2ccccc2)nc1C	> 31.6	> 31.6	> 31.6	> 100	> 31.6	> 31.6	> 100	> 31.6	> 31.6	> 31.6	> 31.6	> 100	> 31.6	> 31.6	> 80.5
COC(=O)/C=C/CCC#Cc1ccccc1C#CCC/C=C/C(=O)OC	27	> 100	> 100	66.2	> 100	53.2	98.2	> 100	9.63	> 100	> 100	19	–	> 100	18.6
CCOC(=O)c1ncn(CCc2ccc(Cl)cc2)c1C	> 100	> 100	> 100	> 100	> 100	> 100	> 100	> 100	> 100	> 100	> 100	–	> 100	> 100	> 100
CCN(CC)C1Oc2cc3c(cc2C(c2cc(OC)c(O)c(OC)c2)C1C)OCO3 (stereo unspecified)	> 31.5	18.2	26.2	37.4	27.3	29.1	50	> 100	11.9	26.6	> 100	23.9	34.7	24.1	11
COC(=O)C1(C(=O)OC)N=C(C)OC1c1ccccc1O (stereo unspecified)	> 100	> 100	> 100	> 100	> 100	> 100	> 100	> 100	> 100	> 100	> 100	> 100	> 100	> 100	–
CN(C)c1ccc(C=Nc2ccc(-c3nc4ccccc4s3)cc2)cc1	52.2	> 100	31.7	92	76.5	42.8	> 100	> 100	0.525	> 100	69	80.9	> 100	29.9	51.2
C/C(=C\COP(=O)(O)OP(=O)(O)O)CCCCCCOCc1ccccc1	> 100	> 100	> 100	> 100	> 100	> 100	> 100	> 100	> 100	> 100	> 100	> 100	> 100	> 100	> 100
Cc1ccc2[nH]c3c(c(=O)n(C)c(=O)n3C)c2c1	–	> 100	> 100	> 100	> 100	> 100	> 100	> 100	> 100	> 100	> 100	> 100	> 100	> 100	> 100
N=c1oc2ccccc2cc1C(=O)Nc1cccc2ccccc12	> 100	> 100	> 100	> 100	> 100	> 100	> 100	> 100	> 100	> 100	> 100	> 100	> 100	–	–

SMILES	TGI (RXF 393 renal) [µM]	TGI (HCT-116 colon) [µM]	TGI (UACC-62 melanoma) [µM]	TGI (NCI/ADR-RES ovarian) [µM]	TGI (MCF7 breast) [µM]	TGI (786-0 renal) [µM]	TGI (IGROV1 ovarian) [µM]	TGI (BT-549 breast) [µM]	TGI (HL-60(TB) leukemia) [µM]	TGI (U251 CNS) [µM]	TGI (ACHN renal) [µM]	TGI (SNB-75 CNS) [µM]	TGI (RPMI-8226 leukemia) [µM]	TGI (SF-295 CNS) [µM]	TGI (NCI-H522 lung) [µM]
CC(C)(C)OC(=O)N(O)[C@@H]1CC[C@H](n2cnc3c(N)ncnc32)C1	> 100	> 100	> 100	> 100	> 100	> 100	> 100	> 100	–	> 100	> 100	> 100	> 100	> 100	> 100
CC[C@H](C)[C@H]1NC(=O)[C@@H](N)[C@@H](C)OC(=O)[C@H](Cc2ccc(OC)cc2)N(C)C(=O)[C@@H]2CCCN2C(=O)[C@H](CC(C)C)NC(=O)[C@@H](C)C(=O)[C@H](C(C)C)OC(=O)C[C@@H]1O (H-T[X35]LP[NMeY](Me); ester 1-C)	> 100	–	92.3	> 100	> 100	> 100	> 100	45.9	> 100	> 100	> 100	> 100	> 100	> 100	25.1
O=c1[nH]c(=O)c2c([nH]1)[nH]c1ccc(Br)cc12	> 100	> 100	> 100	> 100	> 100	> 100	> 100	> 100	> 100	–	> 100	> 100	> 100	> 100	> 100
CC1(C)Cc2c(sc3[nH]c(=S)[nH]c(=S)c23)CS1	> 100	> 100	67.4	> 100	> 100	> 100	> 100	> 100	92.7	> 100	–	–	68.5	–	–
CC(Br)CN1CCOCC1 (stereo unspecified)	> 100	> 100	> 100	> 100	> 100	> 100	> 100	> 100	51.8	> 100	> 100	–	> 100	–	> 100
CN1CCN(c2cc3nc(-c4ccc(Cl)cc4)[nH]c3cc2F)CC1	30.9	> 54.4	18.9	67.6	> 45.2	67.2	36.1	31.1	–	> 75.9	29.8	50.1	41.4	28.8	32
O=C(c1cscc1CCc1ccccc1)c1cscc1CCc1ccccc1	> 100	> 100	> 100	> 100	> 100	> 100	> 100	> 100	–	> 100	> 100	> 100	> 100	> 100	> 100
COc1ccccc1-n1nnc2c(N)nc(N)nc21	–	> 100	> 100	> 100	> 100	> 100	> 100	> 100	> 100	> 100	> 100	> 100	> 100	> 100	> 100
O=c1[nH]c2c(c(=O)[nH]1)SC(c1ccccc1)C2 (stereo unspecified)	> 100	> 100	–	> 100	> 100	> 100	> 100	> 100	> 100	> 100	> 100	> 100	> 100	> 100	> 100
O=Cc1ccc2ccocc1-2	> 100	> 100	> 100	> 100	> 100	> 100	> 100	> 100	> 100	> 100	> 100	–	> 100	> 100	> 100
C=C1CC[C@@H]2C13[C@@H]1[C@H](CC(=O)[C@@]23C)C1(C)C (stereo partly specified)	> 100	> 100	> 100	> 100	> 100	> 100	> 100	> 100	> 100	> 100	> 100	–	> 100	> 100	> 100
CCCCC(=O)/C=c1/cc(C)[nH]c2cccc3cnn1c32	–	> 100	> 100	> 100	> 100	> 100	> 100	> 100	> 100	> 100	> 100	–	> 100	> 100	> 100
COc1ccc(Cc2cc(Cc3ccc(OC)cc3)cc(Cc3ccc(OC)cc3)c2)cc1	–	> 100	> 100	> 100	> 100	> 100	> 100	> 100	> 100	> 100	> 100	> 100	> 100	> 100	> 100
Cc1cc(C)c(NS(=O)c2cccc(C(F)(F)F)c2)c(C)c1 (stereo unspecified)	> 100	–	–	> 100	> 100	> 100	–	> 100	> 100	> 100	> 100	–	> 100	> 100	–
COc1cc(S(=O)(=O)Nc2ccc(-c3csc(N4C(=O)C(C)SC4c4cccs4)n3)cc2)ccc1Cl (stereo unspecified)	31.1	> 100	> 100	> 100	> 100	> 100	> 100	> 100	41.7	–	> 100	–	> 100	> 100	56.6
CCc1n[nH]c(=O)n1CC	–	> 100	> 100	> 100	> 100	> 100	> 100	> 100	> 100	> 100	> 100	–	> 100	> 100	> 100

Reference: PubChem BioAssay (NCI)
